According to patent US12427147B2, “Retinal ganglion cell death inhibitor” (SENJU PHARMACEUTICAL CO., LTD., priority 2018, dated 2025):

Tests used:
[1] = test system: rat retinal ganglion cells; test: Menadione-induced retinal ganglion cell death, antibody/K02288 treatment (Example 1); assay type: cell-based; details: 6 μM menadione, 18 hours, vs Normal IgG treatment group, n=3, FIG. 1C
Experimental: The retina was taken out from each of 7 days-old SD rats (13 rats) (Japan SLC Co., Ltd.) and retinal cells were dispersed by Dissociation Kit-Postnatal Neurons (Miltenyi Biotec). Thereafter, retinal ganglion cells (RGC) were isolated from other retinal cells by use of Retinal Ganglion Cell Isolation Kits (Miltenyi Biotec).
The retinal ganglion cells were suspended in RGC culture medium, seeded in the wells of a 96-well plate at a density of 2×10^4 cells/well and cultured at 37° C. under a 5% CO2 atmosphere for 24 hours. Twenty four hours later, the medium was removed. To a medium for a menadione reaction, 6 μM menadione, Normal rabbit IgG (Santa Cruz Biotechnology, Inc.), an anti-ALK3 antibody (Anti-BMPR1A antibody, Abcam plc.), an anti-ALK4 antibody (anti-Activin A receptor Type IB antibody, Abcam plc.) and an ALK3 inhibitor, i.e., K02288 (Tocris Bioscience) (PLOS ONE 2013 8 (4) e62721) were added in accordance with the constitutions of individual groups (described later) and incubation was performed at 37° C. for 18 hours. […] Three photographs per well were taken by IncuCyte S3 live cell analysis system (Essen Bioscience) and analyzed. Data was calculated as the ratio of the number of survival cells relative to a total number of dead cells and survival cells. […]

[2] = test system: rat retinal ganglion cells; test: Menadione-induced retinal ganglion cell death, low-molecular ALK3 inhibitors (Example 2); assay type: cell-based; details: 6 μM menadione; for dose dependence of cell death inhibitory effect: 100 nM to 10 μM K02288, 100 nM to 1 μM LDN-193189; for cell death inhibitory effect compared to the group treated with menadione alone / protection of cells from retinal ganglion cell death induced by menadione: 18 hours
Experimental: Rat retinal ganglion cells were isolated in the same manner as in Example 1. In the experimental system (FIG. 2A) of K02288 treatment, three rats were used; whereas, in the experimental system (FIG. 2B) of LDN-193189 treatment, two rats were used.
Retinal ganglion cells were suspended in RGC culture medium and seeded in the wells of a 96-well plate at a density of 1×10^4 cells/well and cultured at 37° C. under a 5% CO2 atmosphere for 24 hours. Twenty four hours later, the medium was removed. To a medium for a menadione reaction, 6 μM menadione and ALK3 inhibitors, i.e., K02288 (Tocris Bioscience) or LDN-193189 (MedChemExpress) (PLOS ONE 2013 8 (4) e62721) were added in accordance with the constitutions of individual groups. DMSO was added to a non K02288 treatment group or a non LDN-193189 treatment group, (a group treated with menadione alone). The cells were incubated at 37° C. for 18 hours and thereafter stained by use of LIVE/DEAD Viability/Cytotoxicity Kit (Thermo Fisher Scientific Inc.). Three photographs per well were taken by use of IncuCyte S3 live cell analysis system (Essen Bioscience) and analyzed. Data was calculated as the ratio of the number of survival cells relative to a total number of dead cells and survival cells. The RGC culture medium and medium for a menadione reaction used herein are the same as those used in Example 1.
Constitutions of groups (a group treated with K02288: n=8, a group treated with LDN-193189: n=6)
Control group: menadione was absent
A group treated with menadione alone: menadione and DMSO were added
A group treated with K02288 (3 groups: 100 nM, 1 μM, 10 μM): menadione and K02288 were added
A group treated with LDN-193189 (2 groups: 100 nM, 1 μM): menadione and LDN-193189 were added.

retinal ganglion cells = details: mouse retina, Non Patent Literature 1; cited from earlier work
[3] = 1 μM test compound, FIGS. 2A and 2B

Molecule	suppression of retinal ganglion cell death (ratio of survival cells to total cells) [1]	dose dependence of cell death inhibitory effect [2]	cell death inhibitory effect compared to the group treated with menadione alone [2, 3]	protection of cells from retinal ganglion cell death induced by menadione [2]	cell death inhibitory effect compared to the group treated with menadione alone ([2]; 10 μM test compound, FIG. 2A)	effect on retinal ganglion cell death induced by NMDA (retinal ganglion cells)
COc1cc(-c2cc(-c3cccc(O)c3)cnc2N)cc(OC)c1OC [K02288, 3-[6-amino-5-(3,4,5-trimethoxyphenyl)-3-pyridinyl]-phenol]	cell death was significantly suppressed	cell death inhibitory effect in a dose-dependent manner	significant cell death inhibitory effect	exerted an effect to protect cells	significant cell death inhibitory effect	–
c1ccc2c(-c3cnn4cc(-c5ccc(N6CCNCC6)cc5)cnc34)ccnc2c1 [LDN-193189, 4-[6-(4-piperazin-1-yl-phenyl)-pyrazolo[1,5-α]pyrimidin-3-yl]-quinoline]	–	cell death inhibitory effect in a dose-dependent manner	significant cell death inhibitory effect	exerted an effect to protect cells	–	–
BMP4: a kind of BMP (bone morphogenetic protein) (protein, UniProt P12644 293-408, looked up) Bone morphogenetic protein 4: SPKHHSQRARKKNKNCRRHSLYVDFSDVGWNDWIVAPPGYQAFYCHGDCPFPLADHLNSTNHAIVQTLVNSVNSSIPKACCVPTELSAISMLYLDEYDKVVLKNYQEMVVEGCGCR	–	–	–	–	–	suppressed
Noggin: a BMP inhibitor (naturally occurring protein) (protein, UniProt Q13253 28-232, looked up) Noggin: QHYLHIRPAPSDNLPLVDLIEHPDPIFDPKEKDLNETLLRSLLGGHYDPGFMATSPPEDRPGGGGGAAGGAEDLAELDQLLRQRPSGAMPSEIKGLEFSEGLAQGKKQRLSKKLRRKLQMWLWSQTFCPVLYAWNDLGSRFWPRYVKVGSCFSKRSCSVPEGMVCKPSKSVHLTVLRWRCQRRGGQRCGWIPIQYPIISECKCSC	–	–	–	–	–	accelerated
